Data: patent US12648943B2, “Treatment of adrenocortical carcinoma with selective glucocorticoid receptor modulators (SGRMs) and antibody checkpoint inhibitors” (Corcept Therapeutics Incorporated, priority 2020, dated 2026)
Entries after “also recorded” stand apart in the source; their conditions may differ.

Legend:
[1] = test system: tyrosine aminotransferase (TAT) in HepG2 cells; conditions: cited from earlier work
human NK cells [2] = assay: Activation of isolated human NK cells stimulated with IL-2 (CD25+CD69+ cells); assay type: cell-based; conditions: NK cells from healthy donors, IL-2 stimulated; cortisol alone or cortisol plus relacorilant; Mann-Whitney p=0.0039
Protocol: (§1) Given the prominent suppression of NK related genes in GC+ cases, the direct effects of GR modulation of human NK cells were assessed. NK cells were isolated from healthy donors and stimulated with IL-2. Activation (abundance of CD25+CD69+ cells) was increased by stimulation, suppressed by cortisol, and restored by relacorilant (Mann-Whitney p=0.0039) (FIG. 11A). […] (FIG. 12D).

human NK cells [3] = assay: Proliferation of isolated human NK cells stimulated with IL-2; assay type: cell-based; conditions: NK cells from healthy donors, IL-2 stimulated; cortisol alone or cortisol plus relacorilant; Mann-Whitney p=0.0099
Protocol: as §1

human NK cells [4] = assay: Cytokine secretion by isolated human NK cells stimulated with IL-2; assay type: cell-based; conditions: for Cytokine secretion (both transcript and secreted protein): cortisol alone or cortisol plus relacorilant
Protocol: as §1

human NK cells [5] = assay: Gene expression in isolated human NK cells stimulated with IL-2; assay type: cell-based; conditions: for Expression of IL2RA (IL2 receptor) / Expression of LAG3 / Transcription of IFNG (IFNγ): IL-2 stimulated human NK cells; for Expression of IL2RA (IL2 receptor) / Expression of LAG3 / Transcription of IFNG (IFNγ) / Expression of 4-1BB (CD137 tnfrsf9): cortisol alone or cortisol plus relacorilant; for Expression of 4-1BB (CD137 tnfrsf9): stimulated human NK cells
Protocol: as §1

K562 tumor cells = assay: K562 tumor cell killing by human NK cells in vitro; assay type: cell-based; conditions: for Tumor cell killing by NK cells at 5:1 ratio: 5:1 effector:tumor cell ratio, Mann-Whitney p=0.004; for Tumor cell killing by NK cells: various NK:tumor cell ratios, cortisol alone or cortisol plus relacorilant
Protocol: Activation, proliferation, and cytokine secretion are all indicative of a functional change in NK cells mediated by cortisol and relacorilant. To determine if this functional change also affected target cell killing, NK cells were incubated with K562 tumor cells. At various NK:tumor cell ratios, cortisol suppressed tumor cell killing and relacorilant restored it (FIG. 13A). […] Thus, glucocorticoids suppress tumor cell killing by human NK cells in vitro.

[6] = IL-2 stimulated human NK cells, relacorilant relative to cortisol alone

Compound | Activity of tyrosine aminotransferase (TAT) [1] | NK cell activation (abundance of CD25+CD69+ cells) (human NK cells [2]) | Proliferation of NK cells (human NK cells [3]) | Cytokine secretion (both transcript and secreted protein) (human NK cells [4]; IL-2 stimulated human NK cells) | Granzyme A secretion (human NK cells [4]; [6]) | interferon γ (IFNγ) secretion (human NK cells [4]; [6]) | tumor necrosis factor (TNFα) secretion (human NK cells [4]; [6]) | Expression of IL2RA (IL2 receptor) (human NK cells [5]) | Expression of LAG3 (human NK cells [5]) | Transcription of IFNG (IFNγ) (human NK cells [5]) | Expression of 4-1BB (CD137 tnfrsf9) (human NK cells [5]) | Tumor cell killing by NK cells at 5:1 ratio (K562 tumor cells) | Tumor cell killing by NK cells (K562 tumor cells) | Secretion of other effector cytokines (human NK cells [4]; human NK cells) | Expression of chemokine ligand 3-like 1 (ccl3l1) (human NK cells [5]; stimulated NK cells)
CC#C[C@]1(O)CC[C@H]2[C@@H]3CCC4=CC(=O)CCC4=C3[C@@H](c3ccc(N(C)C)cc3)C[C@@]21C [mifepristone] | decreases | – | – | – | – | – | – | – | – | – | – | – | – | – | –
Cn1cc(S(=O)(=O)N2CCC3=Cc4c(cnn4-c4ccc(F)cc4)C[C@]3(C(=O)c3cc(C(F)(F)F)ccn3)C2)cn1 [relacorilant, (R)-(1-(4-fluorophenyl)-6-((1-methyl-1H-pyrazol-4-yl)sulfonyl)-4,4a,5,6,7,8-hexahydro-1H-pyrazolo[3,4-g]isoquinolin-4a-yl)(4-(trifluoromethyl)pyridin-2-yl)methanone] | – | restore; also recorded: significantly improved | restore; also recorded: significantly improved | restored | improved | improved | improved | restored; also recorded: improved | restored; also recorded: promoted; also recorded: improved | improved | promoted | significant improvement; also recorded: counteracted | restore; also recorded: counteracted | – | –
C[C@]12CCC(=O)C=C1CC[C@@H]1[C@@H]2[C@@H](O)C[C@@]2(C)[C@H]1CC[C@]2(O)C(=O)CO [cortisol, reference compound] | – | suppressed | suppressed | suppressed | – | suppressed | – | suppressed | suppressed | suppressed | suppressed | significant decrease | suppressed | suppressed | suppressed
